# According to EP0603240B1, “SAFENING HERBICIDAL PYRAZOLYLSULFONYLUREAS” (priority 1991, dated 1993):
# Assays:
# Assay type in all cases: in vivo
# [1] = system: corn; assay: Example 6, Procedure II: Herbicide No. 1 + alachlor (No. 7) with antidotes
# How it was run: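 Herbicide No. 1 plus alachlor and antidote, each applied in acetone, mixed into silt loam cover soil over seeded corn; untreated and herbicide-only controls included. Given initial overhead irrigation equal to 0.6 cm rainfall, then greenhouse sub-irrigation. Percent injury scored, duplicate averages; efficacy is injury without minus with antidote.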
# [2] = system: corn; assay: Example 21, Procedure II: Herbicide No. 1 + SUTAN PLUS (butylate + antidote) with antidotes
# Procedure: (§1) Containers were filled and compacted with a fumigated silt loam top soil to a depth of about 1.3 cm from the top of the container. A first container was designated as an untreated control, a second container was designated as a herbicide control, and a third container was designated as a herbicide + antidote test container. Each of the containers was seeded with a crop species. A measured amount of herbicide dispersed or dissolved in acetone was applied to a measured quantity of soil. To this same quantity of soil treated with herbicide, there was added a measured amount of antidote dispersed or dissolved in acetone. The quantity of soil treated with the herbicide and antidote was thoroughly mixed to incorporate the herbicide and antidote in the soil uniformly. The seed bed in the third container of soil was covered with the soil treated with the herbicide and antidote and the container was leveled. For each test series, the seed beds of the first and second containers were likewise covered by soil layers. the cover layer of the first container was not treated with herbicide or antidote.
# (§2) The containers were then placed on a bench in a greenhouse and sub-irrigated as required for the duration of the test. […] Plant response is measured in terms of percent injury. Antidote efficacy is indicated as the difference in plant injury by the herbicide(s) without the antidote and with the antidote.
# (§3) This procedure is the same as Procedure I, but modified in the manner that after incorporation of the chemicals (herbicide and antidote) the containers with the covered seedbed were treated with an initial overhead irrigation equivalent to 0.6 cm rainfall, then subsequently sub-irrigated as required on greenhouse benches.
# (§4) In this example, tests were conducted as in the preceding Examples 18-20, except here the co-herbicidal component was SUTAN® PLUS, a commercial product comprising as the active herbicidal ingredient the compound butylate (Herbicide No. 10) and an antidote […] (Antidote No. 1). Again, the antidotal compounds herein were Nos. 1, 2, 7, 13 and 15. Procedure II was used.
# [3] = system: corn; assay: Example 7, Procedure II: Herbicide No. 1 + metolachlor (No. 12) with antidotes
# How it was run: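 Herbicide plus antidote, applied in acetone, mixed into silt loam top soil used to cover corn seed beds, with untreated and herbicide-only controls. After incorporation, containers got overhead irrigation equal to 0.6 cm rainfall, then sub-irrigation in greenhouse. Percent injury scored; antidote efficacy is injury difference; duplicate averages.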
# [4] = system: corn; assay: Example 8, Procedure II: Herbicide No. 1 + butachlor (No. 9) with antidotes
# How it was run: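 Corn sown in silt loam and covered with soil pre-mixed with acetone-applied Herbicide No. 1 plus butachlor, with or without antidote. Given 0.6 cm overhead irrigation, then sub-irrigated in greenhouse; antidote effect is percent injury without minus with antidote.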
# [5] = system: barnyardgrass (Echinochloa crusgalli); assay: Example 7, Procedure II: Herbicide No. 1 + metolachlor (No. 12) with antidotes
# How it was run: (§5)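 Herbicide and antidote in acetone were mixed into silt loam soil used to cover seeded beds, followed by 0.6 cm overhead irrigation, then sub-irrigation in the greenhouse. Percent injury was scored against herbicide-alone and untreated controls, averaged over duplicates. Herbicide No. 1 was combined with metolachlor.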
# [6] = system: velvetleaf (Abutilon theophrasti); assay: as above
# How it was run: as §5
# [7] = system: barnyardgrass (Echinochloa crusgalli); assay: Example 6, Procedure II: Herbicide No. 1 + alachlor (No. 7) with antidotes
# How it was run: (§6)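 Herbicide No. 1 plus alachlor, with or without antidote, was applied in acetone and mixed into a silt loam soil layer covering corn and weed seedbeds. Containers received 0.6 cm overhead irrigation, then greenhouse sub-irrigation. Injury was rated as percent, averaged over duplicates; antidote effect is the injury difference without and with antidote.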
# [8] = system: velvetleaf (Abutilon theophrasti); assay: as above
# How it was run: as §6
# [9] = system: barnyardgrass (Echinochloa crusgalli); assay: Example 19, Procedure II: Herbicide No. 1 + ERADICANE EXTRA with added antidotes
# Procedure: as §1, §2, §3
# (§7) In the series of greenhouse tests described below, for routine screening purposes the herbicide/antidote compositions were tested in crop/weed combinations involving corn as the crop and either or both of the weeds barnyardgrass (Echinochloa crusgalli), a monocotyledonous weed, and velvetleaf (Abutilon theophrasti), a dicotyledonous weed. In the tables below, these weeds are indicated by the symbols "BYG" and "VL", respectively.
# (§8) In the test reported in this example, the herbicidal composition was similar to that used in Example 16 in that Herbicide No. 1 was combined with EPTC (Herbicide No. 4) as a co-herbicide and the antidotes included Nos. 1, 2, 7, 13 and 15. However, in this test the EPTC was introduced as a formulation of ERADICANE (EPTC + the antidote R-25788, i.e., Antidote No. 1) at an application rate of 8.96 kg/ha. Thus, in this test two antidotes were present, viz. R-25788 and one of the auxilliary antidotes, No. 2, 13 and 15.
# (§9) The test reported in this example was performed in the same manner and with the same antidotes used in Example 18, the only difference being the substitution of the commercial herbicidal product ERADICANE® EXTRA for ERADICANE®. ERADICANE EXTRA is a formulation containing both an antidote, i.e., R-29148 (Antidote No. 5 herein), and an extender, dietholate.
# [10] = system: velvetleaf (Abutilon theophrasti); assay: as above
# Procedure: as §1, §2, §3, §7, §8, §9
# [11] = system: barnyardgrass (Echinochloa crusgalli); assay: Example 21, Procedure II: Herbicide No. 1 + SUTAN PLUS (butylate + antidote) with antidotes
# Procedure: as §1, §2, §3, §7, §4
# [12] = system: velvetleaf (Abutilon theophrasti); assay: as above
# Procedure: as §1, §2, §3, §7, §4
# [13] = Herbicide No.1 0.14 + No.7 4.48 kg/ha + antidote 2.24 kg/ha
# [14] = Herbicide No.1 0.14 + No.7 4.48 kg/ha + antidote 8.96 kg/ha
# [15] = Herbicide No.1 0.56 + No.7 4.48 kg/ha + antidote 2.24 kg/ha
# [16] = Herbicide No.1 0.56 + No.7 4.48 kg/ha + antidote 8.96 kg/ha
# [17] = Herbicide No.1 0.56 kg/ha + SUTAN + 8.96 kg/ha, antidote 2.24 kg/ha
# [18] = Herbicide No.1 0.56 kg/ha + SUTAN + 8.96 kg/ha, antidote 8.96 kg/ha
# [19] = Herbicide No.1 1.12 kg/ha + SUTAN + 8.96 kg/ha, antidote 2.24 kg/ha
# [20] = Herbicide No.1 1.12 kg/ha + SUTAN + 8.96 kg/ha, antidote 8.96 kg/ha
# [21] = Herbicide No.1 0.14 + No.12 3.36 kg/ha + antidote 2.24 kg/ha
# [22] = Herbicide No.1 0.14 + No.12 3.36 kg/ha + antidote 8.96 kg/ha
# [23] = Herbicide No.1 0.56 + No.12 3.36 kg/ha + antidote 2.24 kg/ha
# [24] = Herbicide No.1 0.56 + No.12 3.36 kg/ha + antidote 8.96 kg/ha
# [25] = Herbicide No.1 0.14 + No.9 2.24 kg/ha + antidote 2.24 kg/ha
# [26] = Herbicide No.1 0.14 + No.9 2.24 kg/ha + antidote 8.96 kg/ha
# [27] = Herbicide No.1 0.56 + No.9 2.24 kg/ha + antidote 2.24 kg/ha
# [28] = Herbicide No.1 0.56 + No.9 2.24 kg/ha + antidote 8.96 kg/ha
# [29] = Herbicide No.1 0.56 kg/ha + ERADICANE EXTRA 8.96 kg/ha, antidote 2.24 kg/ha
# [30] = Herbicide No.1 0.56 kg/ha + ERADICANE EXTRA 8.96 kg/ha, antidote 8.96 kg/ha
# [31] = Herbicide No.1 1.12 kg/ha + ERADICANE EXTRA 8.96 kg/ha, antidote 2.24 kg/ha
# [32] = Herbicide No.1 1.12 kg/ha + ERADICANE EXTRA 8.96 kg/ha, antidote 8.96 kg/ha
compound,measurement,setting,value
CC1(C(Cl)Cl)OCCO1 [compound 13],% Injury Corn,[1]; [13],0%
same,% Injury Corn,[1]; [14],0%
same,% Injury Corn,[1]; [15],5%
same,% Injury Corn,[1]; [16],15%
same,% Injury Corn,[2]; [17],0%
same,% Injury Corn,[2]; [18],10%
same,% Injury Corn,[2]; [19],5%
same,% Injury Corn,[2]; [20],10%
same,% Injury Corn,[3]; [21],0%
same,% Injury Corn,[3]; [22],0%
same,% Injury Corn,[3]; [23],10%
same,% Injury Corn,[3]; [24],10%
same,% Injury Corn,[4]; [25],25%
same,% Injury Corn,[4]; [26],10%
same,% Injury Corn,[4]; [27],45%
same,% Injury Corn,[4]; [28],30%
same,% Injury BYG,[5]; [21],100%
same,% Injury BYG,[5]; [22],100%
same,% Injury BYG,[5]; [23],100%
same,% Injury BYG,[5]; [24],100%
same,% Injury VL,[6]; [21],75%
same,% Injury VL,[6]; [22],80%
same,% Injury VL,[6]; [23],85%
same,% Injury VL,[6]; [24],85%
same,% Injury BYG,[7]; [13],100%
same,% Injury BYG,[7]; [14],100%
same,% Injury BYG,[7]; [15],100%
same,% Injury BYG,[7]; [16],100%
same,% Injury VL,[8]; [13],75%
same,% Injury VL,[8]; [14],65%
same,% Injury VL,[8]; [15],90%
same,% Injury VL,[8]; [16],90%
same,% Injury BYG,[9]; [29],90%
same,% Injury BYG,[9]; [30],90%
same,% Injury BYG,[9]; [31],90%
same,% Injury BYG,[9]; [32],95%
same,% Injury VL,[10]; [29],65%
same,% Injury VL,[10]; [30],70%
same,% Injury VL,[10]; [31],80%
same,% Injury VL,[10]; [32],85%
same,% Injury BYG,[11]; [17],40%
same,% Injury BYG,[11]; [18],50%
same,% Injury BYG,[11]; [19],70%
same,% Injury BYG,[11]; [20],70%
same,% Injury VL,[12]; [17],55%
same,% Injury VL,[12]; [18],40%
same,% Injury VL,[12]; [19],70%
same,% Injury VL,[12]; [20],70%
O=C(C(Cl)Cl)N1CCOC12CCCCC2 [compound 7],% Injury Corn,[1]; [13],0%
same,% Injury Corn,[1]; [14],10%
same,% Injury Corn,[1]; [15],10%
same,% Injury Corn,[1]; [16],5%
same,% Injury Corn,[2]; [17],5%
same,% Injury Corn,[2]; [18],20%
same,% Injury Corn,[2]; [19],15%
same,% Injury Corn,[2]; [20],15%
same,% Injury Corn,[3]; [21],10%
same,% Injury Corn,[3]; [22],10%
same,% Injury Corn,[3]; [24],15%
same,% Injury Corn,[4]; [25],5%
same,% Injury Corn,[4]; [26],10%
same,% Injury Corn,[4]; [27],25%
same,% Injury Corn,[4]; [28],20%
same,% Injury BYG,[5]; [21],100%
same,% Injury BYG,[5]; [22],100%
same,% Injury BYG,[5]; [23],100%
same,% Injury BYG,[5]; [24],100%
same,% Injury VL,[6]; [21],70%
same,% Injury VL,[6]; [22],65%
same,% Injury VL,[6]; [23],85%
same,% Injury VL,[6]; [24],85%
same,% Injury BYG,[7]; [13],100%
same,% Injury BYG,[7]; [14],100%
same,% Injury BYG,[7]; [15],100%
same,% Injury BYG,[7]; [16],100%
same,% Injury VL,[8]; [13],75%
same,% Injury VL,[8]; [14],75%
same,% Injury VL,[8]; [15],90%
same,% Injury VL,[8]; [16],90%
same,% Injury BYG,[9]; [29],85%
same,% Injury BYG,[9]; [30],85%
same,% Injury BYG,[9]; [31],90%
same,% Injury BYG,[9]; [32],85%
same,% Injury VL,[10]; [29],75%
same,% Injury VL,[10]; [30],80%
same,% Injury VL,[10]; [31],75%
same,% Injury VL,[10]; [32],85%
same,% Injury BYG,[11]; [17],25%
same,% Injury BYG,[11]; [18],10%
same,% Injury BYG,[11]; [19],40%
same,% Injury BYG,[11]; [20],10%
same,% Injury VL,[12]; [17],45%
same,% Injury VL,[12]; [18],65%
same,% Injury VL,[12]; [19],65%
same,% Injury VL,[12]; [20],45%
